Reference: patent US20240208986A1, “PHENYL AZEPINES AS RIPK1 INHIBITORS AND METHODS OF USE THEREOF” (Merck Sharp & Dohme LLC, priority 2021, published 2024)
pIC50: −log10 of the molar value.

What follows are compounds tested against RIPK1 (recombinant GST-RIPK1 kinase domain, residues 1-327) (Homo sapiens (Human), UniProt Q13546) (assay: RIPK1-ADP-Glo Enzymatic Assay). Details: 25 nM GST-RIPK1, 300 μM ATP, 3 μM dephosphorylated-MBP; 30 minutes pre-incubation, 150 minutes reaction; ten-point titration.
Type: biochemical
Procedure: The enzymatic activity of RIPK1 is measured using an assay derived from ADP-Glo kit (™Promega), which provides a luminescent-based ADP detection system. Specifically, the ADP generated by RIPK1 kinase is proportionally detected as luminescent signals in a homogenous fashion. In this context, the assessment of the inhibitory effect of small molecules (EC50) is measured by the effectiveness of the compounds to inhibit the ATP to ADP conversion by RIPK1.
In this assay, the potency (EC50) of each compound was determined from a ten-point (1:3 serial dilution; top compound concentration of 100000 nM) titration curve using the following outlined procedure. To each well of a white ProxiPlus 384 well-plate, 30 nL of compound (1% DMSO in final assay volume of 3 μL) was dispensed, followed by the addition of 2 μL of 1× assay buffer (25 mM Hepes 7.3, 20 mM MgCl2, 50 mM NaCl, 1 mM DTT, 0.005% Tween20, and 0.02% BSA) containing 37.5 nM of GST-RIPK1 (recombinant GST-RIPK1 kinase domain (residues 1-327) enzyme produced from baculovirus-transfected Sf21 cells: MW=62 kDa). Plates were placed in an ambient temperature humidified chamber for a 30 minutes pre-incubation with compound. Subsequently, each reaction was initiated by the addition of 1 μL 1× assay buffer containing 900 μM ATP and 3 μM dephosphorylated-MBP substrate. The final reaction in each well of 3 μL consists of 25 nM of GST-RIPK1, 300 μM ATP, and 3 μM dephosphorylated-MBP. Kinase reactions were allowed to proceed for 150 minutes prior to adding ADP-Glo reagents per Promega's outlined kit protocol. Dose-response curves were generated by plotting percent effect (% product conversion; Y-axis) vs. Log10 compound concentrations (X-axis). EC50 values were calculated using a non-linear regression, four-parameters sigmoidal dose-response model.

Chain of RIPK1 (recombinant GST-RIPK1 kinase domain, residues 1-327) (Q13546 1-327): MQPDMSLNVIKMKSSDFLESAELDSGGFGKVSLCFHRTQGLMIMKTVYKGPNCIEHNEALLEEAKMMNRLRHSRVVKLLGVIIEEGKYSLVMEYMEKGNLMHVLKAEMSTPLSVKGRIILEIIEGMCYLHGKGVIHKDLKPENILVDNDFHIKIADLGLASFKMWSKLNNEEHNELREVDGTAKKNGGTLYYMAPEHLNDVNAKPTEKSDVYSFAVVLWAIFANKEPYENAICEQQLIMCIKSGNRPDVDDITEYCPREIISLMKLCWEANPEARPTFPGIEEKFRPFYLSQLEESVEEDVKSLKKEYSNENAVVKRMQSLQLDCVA

Structure (SMILES)	pIC50
O=C(N1C[C@@H]2C[C@H]1c1ccccc1O2)C12CC(C(F)F)(C1)C2 [Compound 1-60, [3-(difluoromethyl)bicyclo [1.1.1]pentan-1-yl][(2S,5S)-2,3-dihydro-2,5-methano-1,4-benzoxazepin-4(5H)-yl]methanone]	6.29
CC(C)(C(=O)N1C[C@@H]2C[C@H]1c1cc(Cl)ccc1O2)C(F)F [Compound 2-1, 1-[(2S,5S)-7-chloro-2,3-dihydro-2,5-methano-1,4-benzoxazepin-4(5H)-yl]-3,3-difluoro-2,2-dimethylpropan-1-one]	7.21
CC(C)(C(=O)N1C[C@@H]2C[C@H]1c1cc(C#N)ccc1O2)C(F)F [Compound 2-2, (2S,5S)-4-(3,3-difluoro-2,2-dimethylpropanoyl)-2,3,4,5-tetrahydro-2,5-methano-1,4-benzoxazepine-7-carbonitrile]	6.80
Cc1ccc2c(c1)[C@@H]1C[C@@H](CN1C(=O)C(C)(C)C(F)F)O2 [Compound 2-3, 3,3-difluoro-2,2-dimethyl-1-[(2S,5S)-7-methyl-2,3-dihydro-2,5-methano-1,4-benzoxazepin-4(5H)-yl]propan-1-one]	6.84
CC(C)(C)C(=O)N1C[C@@H]2C[C@H]1c1cc(F)cc(F)c1O2 [Compound 2-4, 1-[(2S,5S)-7,9-difluoro-2,3-dihydro-2,5-methano-1,4-benzoxazepin-4(5H)-yl]-2,2-dimethylpropan-1-one]	7.22
CC(C)(C)C(=O)N1C[C@@H]2C[C@H]1c1cccc(F)c1O2 [Compound 2-6, 1-[(2S,5S)-9-fluoro-2,3-dihydro-2,5-methano-1,4-benzoxazepin-4(5H)-yl]-2,2-dimethylpropan-1-one]	7.37
CC1(C(=O)N2C[C@@H]3C[C@H]2c2cc(F)ccc2O3)CCC1 [Compound 2-9, [(2S,5S)-7-fluoro-2,3-dihydro-2,5-methano-1,4-benzoxazepin-4(5H)-yl](1-methylcyclobutyl)methanone]	7.20

Compounds with a higher pIC50, results first:

pIC50	Structure (SMILES)
7.47	CC(C)(C)C(=O)N1C[C@@H]2C[C@H]1c1cc(F)ccc1O2 [Compound 2-5, 1-[(2S,5S)-7-fluoro-2,3-dihydro-2,5-methano-1,4-benzoxazepin-4(5H)-yl]-2,2-dimethylpropan-1-one]
7.60	CC(C)(C(=O)N1C[C@@H]2C[C@H]1c1cc(F)ccc1O2)C(F)F [Compound 2-7, 3,3-difluoro-1-[(2S,5S)-7-fluoro-2,3-dihydro-2,5-methano-1,4-benzoxazepin-4(5H)-yl]-2,2-dimethylpropan-1-one]
7.70	CC(C)(C(=O)N1C[C@@H]2C[C@H]1c1cccc(F)c1O2)C(F)F [Compound 2-8, 3,3-difluoro-1-[(2S,5S)-9-fluoro-2,3-dihydro-2,5-methano-1,4-benzoxazepin-4(5H)-yl]-2,2-dimethylpropan-1-one]
7.52	CC1(C(=O)N2C[C@@H]3C[C@H]2c2cccc(F)c2O3)CCC1 [Compound 2-10, [(2S,5S)-9-fluoro-2,3-dihydro-2,5-methano-1,4-benzoxazepin-4(5H)-yl](1-methylcyclobutyl)methanone]
7.59	CC(C)(C(=O)N1C[C@@H]2C[C@H]1c1cc(F)cc(C#N)c1O2)C(F)F [Compound 2-11, (2S,5S)-4-(3,3-difluoro-2,2-dimethylpropanoyl)-7-fluoro-2,3,4,5-tetrahydro-2,5-methano-1,4-benzoxazepine-9-carbonitrile]
7.70	CC(F)(F)C(C)(C)C(=O)N1C[C@@H]2C[C@H]1c1cccc(F)c1O2 [Compound 2-12, 3,3-difluoro-1-[(2S,5S)-9-fluoro-2,3-dihydro-2,5-methano-1,4-benzoxazepin-4(5H)-yl]-2,2-dimethylbutan-1-one]
7.64	CC(F)(F)C(C)(C)C(=O)N1C[C@@H]2C[C@H]1c1cc(F)ccc1O2 [Compound 2-13, 3,3-difluoro-1-[(2S,5S)-7-fluoro-2,3-dihydro-2,5-methano-1,4-benzoxazepin-4(5H)-yl]-2,2-dimethylbutan-1-one]
